# Results from patent US4711889A, “Schistosomicidal acridanone hydrazones” (Hoffman-La Roche Inc., priority 1986, dated 1987).
# Where a name gives a salt, the structure may show the parent alone.
# Assay: acute toxicity, single oral administration to mice
# Settings: mouse, in vivo
# Excerpt: The following Table contains the results obtained with representative compounds of the invention. In the Table there are given for each of listed compounds, the VD50 in mg/kg p.o. and the LD50 in mg/kg single oral administration to mice.
row,Structure (SMILES),LD50 [mg/kg]
1,CCN(CC)CCn1c2ccccc2c(=NNc2nccs2)c2ccccc21.Cl.Cl [10-[2-(diethylamino)ethyl]-9-acridanone (2-thiazolyl)hydrazone dihydrochloride],> 5000
2,CN1CCN(CCn2c3ccccc3c(=NN=C3NCCS3)c3ccccc32)CC1 [10-[2-(4-methyl-1-piperazinyl)ethyl]-9-acridanone (2-thiazolidinylidene)hydrazone],156 to 312
3,CN1CCN(CCn2c3ccccc3c(=NNc3nccs3)c3ccccc32)CC1 [10-[2-(4-methyl-1-piperazinyl)ethyl]-9-acridanone (2-thiazolyl)hydrazone. 2.5 HCl],625 to 1250
4,CC(=O)N1CCN(CCn2c3ccccc3c(=NNc3nccs3)c3ccccc32)CC1.Cl.Cl [10-[2-(4-acetyl-1-piperazinyl)ethyl]-9-acridanone (2-thiazolyl)hydrazone dihydrochloride],312 to 625
5,c1ccc2c(c1)c(=NNc1nccs1)c1ccccc1n2CCN1CCCCC1 [10-[2-(1-piperidinyl)ethyl]-9-acridanone (2-thiazolyl)hydrazone 1.5 HCl],312 to 625
6,CN(C)CCCn1c2ccccc2c(=NNc2nccs2)c2ccccc21.Cl.Cl [10-[3-(dimethylamino)propyl]-9-acridanone (2-thiazolyl)hydrazone dihydrochloride],312 to 625
7,c1ccc2c(c1)c(=NN=C1NCCS1)c1ccccc1n2CCN1CCCC1 [10-[2-(1-pyrrolidinyl)ethyl]-9-acridanone (2-thiazolidinylidene)hydrazone],156 to 312
8,CN(C)CCn1c2ccccc2c(=NN=C2NCCS2)c2ccccc21 [10-[2-(dimethylamino)ethyl]-9-acridanone (2-thiazolidinylidene)hydrazone],250 to 500
9,Cl.Cl.NCCn1c2ccccc2c(=NNc2nccs2)c2ccccc21 [10-(2-aminoethyl)-9-acridanone 2-thiazolylhydrazone dihydrochloride],156 to 312
10,CC(=O)N1CCN(CCn2c3ccccc3c(=NN=C3NCCS3)c3ccccc32)CC1 [10-[2-(4-acetyl-1-piperazinyl)ethyl]-9-acridanone (2-thiazolidinylidene)hydrazone],1250 to 2500
11,CCN(CC)CCn1c2ccccc2c(=NN=C2NCCS2)c2ccccc21 [10-[2-(diethylamino)ethyl]-9-acridanone (2-thiazolidinylidene)hydrazone],312 to 625
12,CN(C)CCCn1c2ccccc2c(=NN=C2NCCS2)c2ccccc21 [10-[3-(dimethylamino)propyl]-9-acridanone (2-thiazolidinylidene)hydrazone],125 to 250
13,CN(C)CCn1c2ccccc2c(=NNc2nccs2)c2ccccc21.Cl.Cl [10-[2-(dimethylamino)ethyl]-9-acridanone (2-thiazolyl)hydrazone dihydrochloride],312 to 625
